In general, half-life refers to the time in which the quantity being followed falls by half. A higher half-life goes with slow decline.

The values that follow come from US11827543B2, “Method for continuous supply of superoxide-containing peracetate oxidant solution” (Clean Chemistry, Inc., priority 2014, dated 2023).

The data set is described as follows: Half life and attenuation of oxidant solution in clean water. The format is physicochemical. The method, then:
Measurement of Sodium Peracetate Concentration: Measurement of sodium peracetate concentration is conducted by using a peroxide iodometric titration procedure from HACH. A known, volumetric aliquot of the peracetate-containing solution is diluted with a volume of distilled water where the total volume is convenient for titration between about 5 and 25 mL in a small glass beaker or flask. The diluted peracetate solution is stirred and 1 mL of ammonium molybdate reagent (HACH reagent 1933-32) is added. Sulfuric acid in the reagent converts the peracetate to peracetic acid. The contents of one Sulfite 1 Reagent packet (HACH reagent 2203-99) is added to the prepared solution and stirred for 5 minutes. The purple color that develops is titrated to a colorless endpoint with a standard sodium thiosulfate solution (for example, 0.0250 N sodium thiosulfate solution). The peroxide concentration is calculated based on the volume of the aliquot of peracetate-containing solution, the volume and concentration of sodium thiosulfate solution, two electron equivalents consumed for each molecule of peroxide and the molecular weight of the peroxide being measured.
Example 8: Half Life and Attenuation of Oxidant Solution: The minimum attenuation rate or degradation rate of the sodium peracetate oxidant solution was measured experimentally in clean water conditions. A sodium peracetate oxidant solution containing an initial concentration of 7.5% (wt/vol) sodium peracetate with an initial pH of about 10.1 was prepared by dissolving 0.34 g of sodium hydroxide (98%) in 10.0 mL of 2.85% wt/vol hydrogen peroxide (topical solution) in a 50 mL beaker. Then 1.22 g of triacetin (99%) was combined and the mixture rapidly stirred for 1-2 minutes at room temperature. […]
The sodium peracetate concentration was measured over time using the method described in Example 4. Concentrations were accurate to about ±2.4% of the values measured. The pH was measured using a high sodium electrode (Oakton model 35805-05) with three point calibration and automatic temperature correction.

As for `CC(=O)O[O-].[Na+]` [sodium peracetate oxidant, sodium peracetate], where the note is “7.5% (wt/vol) solution, 25 °C, clean water, initial pH 10.1”, the half-life was in the range of 1.33 to 1.42 h. For the same molecule, where the note is “7.5% solution, 25 °C, at 265 min, initial pH 10.1”, the “final pH of solution” value amounted to 7.3. Besides, under “within about 6 days' time”, the concentration of oxidant result is “less than 5 mg/L”.
